# Experiments:
# Format in all cases: biochemical
# [1] = molecular target: T1, recombinant human cathepsin S (Homo sapiens, UniProt P25774); assay: Cathepsin S enzyme inhibition, kinetic fluorescence assay; conditions: selectivity ratio
# T1 construct: purchased Calbiochem 219343; host or cells: E. coli
# Experimental: (§1) The following solutions and buffers were employed: • HBS (for 40 ml): 800 μl 1M HEPES; 2.16 ml 100 mM KCl; 4.8 ml 1M NaCl; 3.59 ml 5% glucose; 60 μl 1M MgSO4; 400 μl 100 mM Na pyruvate, 28.19 ml water; pH 7.2-7.5. • lysis buffer (for 20 ml): 400 μl 1M Tris pH 8.2; 2.74 ml 1M NaCl; 520 μl 0.5M EDTA; 2 ml 10% triton X-100; 0.8 ml (=1:25) CompletePlus (1 tablet/2 ml H2O); 200 μl 100 mM Pefabloc; 13.34 ml water, pH 8.2. • TBST (10×) (for 1I): 100 mM Tris (12.1 g); 1.5M NaCl (87 g); 1% Tween 20 (10 g), adjusted to pH 8. I. Enzyme Inhibition In Vitro: • Testing for blockade of the corresponding enzymic activities was carried out by means of kinetic fluorescence assays (excitation 390 nm, emission 460 nm). • Apparent Ki values were calculated from the experimentally determined IC50 values by the Cheng-Prussoff relation assuming a reversible competitive enzyme inhibition. The Km values of the substrates used under the assay conditions indicated above were: 90 μM (Z-Phe-Arg-AMC, cathepsin B), 10 μM (Z-Gly-Pro-Arg-AMC, cathepsin K), 2 μM (Z-Phe-Arg-AMC, cathepsin L), and 30 μM (Z-Val-Val-Arg-AMC, cathepsin S). • The indicated Ki values are averages of the inhibition constants calculated on the basis of 2 to 4 independent dose-effect plots. • The following assays were used: • 1. Calpain I: • 20 nM calpain-I—isolated from human erythrocytes (Calbiochem #208713), 100 μM Suc-Leu-Tyr-AMC (Bachem #I-1355) as substrate in buffer with 62 mM imidazole, 0.3 mM CaCl2, 0.10% CHAPS, 0.05% BSA, 1 mM DTT at pH 7.3 and room temperature. • 2. Cathepsin B: • 0.25 nM cathepsin B—isolated from human liver (Calbiochem #219362), 100 μM Z-Phe-Arg-AMC (Bachem #I-1160) as substrate 50 mM MES, 2 mM EDTA, 0.05% Brij 35, 2.5 mM L-cysteine, pH 6.0, room temperature. • 3. Cathepsin K: • 3 nM cathepsin K—activated from recombinant human procathepsin K from E. coli (Calbiochem #342001), 10 μM Z-Gly-Pro-Arg-AMC (Biomol #P-142) as substrate in 50 mM MES, 2 mM EDTA, 0.05% Brij 35, 2.5 mM L-cysteine, pH 6.0, room temperature. • 4. […]
# [2] = molecular target: T2, cathepsin B isolated from human liver (Homo sapiens, UniProt P07858); assay: Cathepsin B enzyme inhibition, kinetic fluorescence assay; conditions: selectivity ratio
# T2 construct: cathepsin B—isolated from human liver; purchased Calbiochem 219362; host or cells: human liver (native tissue isolate)
# Experimental: as §1
# [3] = molecular target: T3, cathepsin K activated from recombinant human procathepsin K (Homo sapiens, UniProt P43235); assay: Cathepsin K enzyme inhibition, kinetic fluorescence assay; conditions: selectivity ratio
# T3 construct: purchased Calbiochem 342001; host or cells: E. coli
# T3 sequence (P43235 115-329): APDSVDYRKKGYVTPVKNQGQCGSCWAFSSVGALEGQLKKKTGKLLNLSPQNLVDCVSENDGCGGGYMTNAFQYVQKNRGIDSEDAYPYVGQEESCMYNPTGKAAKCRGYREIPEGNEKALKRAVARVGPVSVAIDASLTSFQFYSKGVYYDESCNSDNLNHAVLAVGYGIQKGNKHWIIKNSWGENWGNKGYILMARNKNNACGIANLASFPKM
# Experimental: as §1
# [4] = molecular target: T4, calpain-I isolated from human erythrocytes (Homo sapiens, UniProt P07384); assay: Calpain I enzyme inhibition, kinetic fluorescence assay; conditions: apparent Ki from IC50 by Cheng-Prussoff; pH 7.3, room temperature
# T4 construct: calpain-I—isolated from human erythrocytes; purchased Calbiochem 208713; host or cells: human erythrocytes (native tissue isolate)
# T4 sequence (P07384 1-714): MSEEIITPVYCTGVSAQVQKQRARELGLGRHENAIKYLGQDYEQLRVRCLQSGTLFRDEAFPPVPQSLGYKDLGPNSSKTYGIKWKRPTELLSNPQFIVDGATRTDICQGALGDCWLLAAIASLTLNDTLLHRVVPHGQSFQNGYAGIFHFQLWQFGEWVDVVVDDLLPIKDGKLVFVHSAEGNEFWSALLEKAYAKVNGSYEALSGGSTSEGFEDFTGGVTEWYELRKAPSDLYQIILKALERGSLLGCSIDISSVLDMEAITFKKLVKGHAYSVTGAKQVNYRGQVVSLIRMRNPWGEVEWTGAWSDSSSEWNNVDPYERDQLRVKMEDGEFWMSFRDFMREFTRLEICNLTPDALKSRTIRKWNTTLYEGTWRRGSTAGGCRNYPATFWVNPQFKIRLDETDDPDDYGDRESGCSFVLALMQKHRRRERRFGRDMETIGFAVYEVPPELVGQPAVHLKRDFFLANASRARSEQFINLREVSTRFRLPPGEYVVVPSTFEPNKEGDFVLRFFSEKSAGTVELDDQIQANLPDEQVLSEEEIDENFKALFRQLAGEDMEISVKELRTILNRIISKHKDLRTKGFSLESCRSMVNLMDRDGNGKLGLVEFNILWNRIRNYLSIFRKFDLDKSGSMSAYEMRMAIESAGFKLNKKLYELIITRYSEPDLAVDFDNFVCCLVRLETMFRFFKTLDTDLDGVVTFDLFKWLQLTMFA
# T4 sequence (P04632 1-268 partner): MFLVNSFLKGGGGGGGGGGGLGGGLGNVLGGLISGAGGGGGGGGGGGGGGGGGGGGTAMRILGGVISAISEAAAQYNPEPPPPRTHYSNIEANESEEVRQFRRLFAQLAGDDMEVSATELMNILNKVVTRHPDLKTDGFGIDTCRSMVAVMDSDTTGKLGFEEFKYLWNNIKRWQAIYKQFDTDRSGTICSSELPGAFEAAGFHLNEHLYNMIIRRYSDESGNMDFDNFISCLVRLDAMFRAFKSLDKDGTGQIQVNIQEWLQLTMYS
# Experimental: The following solutions and buffers were employed: • HBS (for 40 ml): 800 μl 1M HEPES; 2.16 ml 100 mM KCl; 4.8 ml 1M NaCl; 3.59 ml 5% glucose; 60 μl 1M MgSO4; 400 μl 100 mM Na pyruvate, 28.19 ml water; pH 7.2-7.5. • lysis buffer (for 20 ml): 400 μl 1M Tris pH 8.2; 2.74 ml 1M NaCl; 520 μl 0.5M EDTA; 2 ml 10% triton X-100; 0.8 ml (=1:25) CompletePlus (1 tablet/2 ml H2O); 200 μl 100 mM Pefabloc; 13.34 ml water, pH 8.2. • TBST (10×) (for 1I): 100 mM Tris (12.1 g); 1.5M NaCl (87 g); 1% Tween 20 (10 g), adjusted to pH 8. I. Enzyme Inhibition In Vitro: • Testing for blockade of the corresponding enzymic activities was carried out by means of kinetic fluorescence assays (excitation 390 nm, emission 460 nm). • Apparent Ki values were calculated from the experimentally determined IC50 values by the Cheng-Prussoff relation assuming a reversible competitive enzyme inhibition. The Km values of the substrates used under the assay conditions indicated above were: 90 μM (Z-Phe-Arg-AMC, cathepsin B), 10 μM (Z-Gly-Pro-Arg-AMC, cathepsin K), 2 μM (Z-Phe-Arg-AMC, cathepsin L), and 30 μM (Z-Val-Val-Arg-AMC, cathepsin S). • The indicated Ki values are averages of the inhibition constants calculated on the basis of 2 to 4 independent dose-effect plots. • The following assays were used: • 1. Calpain I: • 20 nM calpain-I—isolated from human erythrocytes (Calbiochem #208713), 100 μM Suc-Leu-Tyr-AMC (Bachem #I-1355) as substrate in buffer with 62 mM imidazole, 0.3 mM CaCl2, 0.10% CHAPS, 0.05% BSA, 1 mM DTT at pH 7.3 and room temperature. • 2. Cathepsin B: • 0.25 nM cathepsin B—isolated from human liver (Calbiochem #219362), 100 μM Z-Phe-Arg-AMC (Bachem #I-1160) as substrate 50 mM MES, 2 mM EDTA, 0.05% Brij 35, 2.5 mM L-cysteine, pH 6.0, room temperature. • 3. Cathepsin K: • 3 nM cathepsin K—activated from recombinant human procathepsin K from E. coli (Calbiochem #342001), 10 μM Z-Gly-Pro-Arg-AMC (Biomol #P-142) as substrate in 50 mM MES, 2 mM EDTA, 0.05% Brij 35, 2.5 mM L-cysteine, pH 6.0, room temperature. • 4. Cathepsin L: • 1 nM cathepsin L—isolated from human liver (Calbiochem #219402), 2 μM Z-Phe-Arg-AMC (Bachem #I-1160) as substrate in 50 mM MES, 2 mM EDTA, 0.05% Brij 35, 2.5 mM L-cysteine, pH 6.0, room temperature. • 5. Cathepsin S: • 0.5 nM recombinant human cathepsin S from E. coli (Calbiochem #219343), 20 μM Z-Val-Val-Arg-AMC (Bachem #I-1540) as substrate in 50 mM MES, 2 mM EDTA, 0.05% Brij 35, 2.5 mM L-cysteine, pH 6.0, room temperature. • The results of the in vitro determination are indicated in Table 2. The following abbreviations are used in Table 2: • The “Calpain activity” column, ++ stands for a calpain Ki (Ki(calpain)) of ≦40 nM, + means: 40 nM<Ki(Calpain)≦100 nM, 0 means 100 nM<Ki(Calpain)≦1 μM, − means 1 μM<Ki(Calpain)≦10 μM, −− means Ki(Calpain)>10 μM. • The “Sel. cat. B” column indicates the Ki(cathepsin B)/Ki(calpain) ratio. In this connection, ++ means a Ki(cathepsin B)/Ki(calpain) ratio of ≧30 and + means≦10≦Ki(cathepsin B)/Ki(calpain)<30. • The “Sel. cat. K” column indicates the Ki(cathepsin K)/Ki(calpain) ratio. In this connection, ++ means a Ki(cathepsin K)/Ki(calpain) ratio of ≧30 and + means 10≦Ki(cathepsin K)/Ki(calpain)<30. • The “Sel. cat. L” column indicates the Ki(cathepsin L)/Ki(calpain) ratio. In this connection, ++ means a Ki(cathepsin L)/Ki(calpain) ratio of ≧50 and + means 30≦Ki(cathepsin L)/Ki(calpain)<50. • The “Sel. cat. S” column indicates the Ki(cathepsin S)/Ki(calpain) ratio. […]
# [5] = molecular target: T5, cathepsin L isolated from human liver (Homo sapiens, UniProt P07711); assay: Cathepsin L enzyme inhibition, kinetic fluorescence assay; conditions: selectivity ratio
# T5 construct: cathepsin L—isolated from human liver; purchased Calbiochem 219402; host or cells: human liver (native tissue isolate)
# Experimental: as §1
# T5 sequence (P07711 114-333): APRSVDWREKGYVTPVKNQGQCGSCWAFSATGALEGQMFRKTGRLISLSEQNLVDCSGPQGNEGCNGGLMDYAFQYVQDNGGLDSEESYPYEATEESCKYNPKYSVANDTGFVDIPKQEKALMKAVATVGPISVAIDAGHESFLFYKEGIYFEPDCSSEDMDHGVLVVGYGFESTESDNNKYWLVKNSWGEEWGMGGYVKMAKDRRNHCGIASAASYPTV
# T1 sequence (P25774 115-331): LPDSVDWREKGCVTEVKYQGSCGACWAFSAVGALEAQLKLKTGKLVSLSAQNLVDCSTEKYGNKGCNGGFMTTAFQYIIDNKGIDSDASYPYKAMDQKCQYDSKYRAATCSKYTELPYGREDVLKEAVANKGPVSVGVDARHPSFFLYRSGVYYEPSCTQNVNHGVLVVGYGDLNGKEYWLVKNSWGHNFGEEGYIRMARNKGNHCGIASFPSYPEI
Ki [4] [nM],SMILES,Sel cat. S: Ki(cathepsin S)/Ki(calpain) ratio [1],Sel cat. B: Ki(cathepsin B)/Ki(calpain) ratio [2],Sel cat. K: Ki(cathepsin K)/Ki(calpain) ratio [3],Sel cat. L: Ki(cathepsin L)/Ki(calpain) ratio [5]
≤ 40,"NC(=O)C(=O)C(Cc1ccccc1)NC(=O)c1cccnc1-n1ccc(-c2cccc(C(F)(F)F)c2)n1 (stereo not shown) [Compound II-2, N-(3-Amino-1-benzyl-2,3-dioxopropyl)-2-{3-[3-(trifluoromethyl)phenyl]-1H-pyrazol-1-yl}nicotinamide]",++ (++ means a Ki(cathepsin S)/Ki(calpain) ratio of ≧100),+ (+ means≦10≦Ki(cathepsin B)/Ki(calpain)<30),++ (++ means a Ki(cathepsin K)/Ki(calpain) ratio of ≧30),++ (++ means a Ki(cathepsin L)/Ki(calpain) ratio of ≧50)
40 to 100,"NC(=O)C(=O)C(Cc1ccccc1)NC(=O)c1cccnc1-n1ccc(-c2ccc(F)cc2)n1 (stereo not shown) [II-3, N-(3-amino-1-benzyl-2,3-dioxopropyl)-2-[3-(4-fluorophenyl)-1H-pyrazol-1-yl]nicotinamide]",++ (++ means a Ki(cathepsin S)/Ki(calpain) ratio of ≧100),+ (+ means≦10≦Ki(cathepsin B)/Ki(calpain)<30),+ (+ means 10≦Ki(cathepsin K)/Ki(calpain)<30),++ (++ means a Ki(cathepsin L)/Ki(calpain) ratio of ≧50)
> 10000,"NC(=O)C1(C(Cc2ccc(F)cc2)NC(=O)c2cccnc2-n2ccc(-c3ccc(Cl)cc3Cl)n2)OCCO1 (stereo not shown) [Compound I-1, N-[1-[2-(Aminocarbonyl)-1,3-dioxolan-2-yl]-2-(4-fluorophenyl)ethyl]-2-[3-(2,4-dichlorophenyl)-1H-pyrazol-1-yl]nicotinamide]",,,,
40 to 100,"NC(=O)C(=O)C(Cc1ccc(F)cc1)NC(=O)c1cccnc1-n1ccc(-c2ccc(Cl)cc2Cl)n1 (stereo not shown) [II-1, N-[3-amino-1-(4-fluorobenzyl)-2,3-dioxopropyl]-2-[3-(2,4-dichlorophenyl)-1H-pyrazol-1-yl]nicotinamide]",++ (++ means a Ki(cathepsin S)/Ki(calpain) ratio of ≧100),++ (++ means a Ki(cathepsin B)/Ki(calpain) ratio of ≧30),++ (++ means a Ki(cathepsin K)/Ki(calpain) ratio of ≧30),++ (++ means a Ki(cathepsin L)/Ki(calpain) ratio of ≧50)

# From patent US9150553B2, “Carboxamide compounds and their use as calpain inhibitors” (AbbVie Deutschland GmbH & Co. KG, priority 2007, dated 2015)
